Measurements published in paper PMC9704499 (European journal of medicinal chemistry, 2021).

Tested on: Tau0N4R-TM-tGFP U2OS cells
Assay: Tau phosphorylation
Conditions: 25–100 μM, 6 hrs

Compound: c1ccc(CNc2nc(Nc3cc(C4CC4)[nH]n3)c3sccc3n2)cc1 [Compound 4, N2-benzyl-N4-(5-cyclopropyl-1H-pyrazol-3-yl)thieno[3,2-d]pyrimidine-2,4-diamine]
- cytotoxicity in bundle formation assay: cytotoxicity effects started to appear
